# Values quoted from earlier work in patent publication US9993454B2, “Solid nanoparticle formulation of water insoluble pharmaceutical substances with reduced Ostwald ripening” (Luminus Biosciences, Inc., priority 2006, dated 2018).
# Conditions: most test systems
compound,measurement,value
C/C(=C\c1csc(C)n1)[C@@H]1C[C@@H]2O[C@]2(C)CCC[C@H](C)[C@H](O)[C@@H](C)C(=O)C(C)(C)[C@@H](O)CC(=O)O1 [epothilone B],effectiveness relative to epothilone A,approximately ten-time more effective
